Measurements published in patent publication US20240300886A1, “ARYLCYCLOHEXYLAMINE DERIVATIVES AND THEIR USE IN THE TREATMENT OF PSYCHIATRIC DISORDERS” (GILGAMESH PHARMACEUTICALS, INC., priority 2021, published 2024).
Where two headings read alike, the source gives them in different places.

How the values were obtained:
[1] = Metabolic stability in human liver microsomes (HLM); assay type: in vitro ADME; conditions: 0.50 mg protein/mL, NADPH; for Clint: 1 μM compound; for half-life at 1 μM: both sexes, human, pooled human liver microsomes, pH 7.4, 1 μM compound
Procedure: (§1) HLM Stability. Pooled HLM from adult male and female donors (Corning 452117) were used. Microsomal incubations were carried out in multi-well plates. Liver microsomal incubation medium consisted of PBS (100 mM, pH 7.4), MgCl2 (1 mM), and NADPH (1 nmM), with 0.50 mg of liver microsomal protein per mL. Control incubations were performed by replacing the NADPH-cofactor system with PBS. Test compounds (1 μM, final solvent concentration 1.0%) were incubated with microsomes at 37° C. with constant shaking, Six time points over 60 minutes were analyzed, with 60 μL aliquots of the reaction mixture being drawn at each time point. The reaction aliquots were stopped by adding 180 μL of cold (4° C.) acetonitrile containing 200 ng/mL tolbutamide and 200 ng/mL labetalol as internal standards (IS), followed by shaking for 10 minutes, and then protein sedimentation by centrifugation at 4,000 rpm for 20 minutes at 4° C. Supernatant samples (80 μL) were diluted with water (240 μL) and analyzed for parent compound remaining using a fit-for-purpose liquid chromatography-tandem mass spectrometry (LC-MS/MS) method.
(§2) Data Analysis. The elimination constant (kel), half-life (t1/2) and intrinsic clearance (Clint) were determined in a plot of […] versus time, using linear regression analysis.

[2] = Metabolic stability in mouse liver microsomes (MLM); assay type: in vitro ADME, CD-1 mice; conditions: male, CD-1, mouse, pooled mouse liver microsomes, pH 7.4, 1 μM compound, 0.50 mg protein/mL, NADPH
Procedure: as §1, with “MLM” for “HLM”, “from” for “from adult”, “CD-1 mice (XenoTech M1000)” for “and female donors (Corning 452117)”, “mM),” for “nmM),”, “shaking.” for “shaking,”
Data Analysis. The elimination constant (kel), half-life (t1/2) and intrinsic clearance (Clint) were determined in a plot of ln(AUC) versus […], using linear regression analysis.

[3] = Metabolic stability in rat liver microsomes (RLM); assay type: in vitro ADME, Sprague Dawley rats; conditions: male, Sprague Dawley, rat, pooled rat liver microsomes, pH 7.4, 1 μM compound, 0.50 mg protein/mL, NADPH
Procedure: as §1, with “RLM” for “HLM”, “from” for “from adult”, “Sprague Dawley rats (XenoTech R1000)” for “and female donors (Corning 452117)”, “mM),” for “nmM),”, “shaking.” for “shaking,”
as §2

[4] = Oral bioavailability in mice, Method B (plasma and brain PK); assay type: in vivo, C57BL/6 mice; conditions: for half-life / Cmax / AUC(0-inf): male, C57BL/6; for half-life / Cmax / AUC(0-inf) / AUC0-inf (iv) / AUC0-inf (po) / F: Method B; for AUC(0-inf) / AUC0-inf (iv) / AUC0-inf (po): values represent AUC0-last; for F: 1 mg/kg
Procedure: Animals. Male C57BL/6 mice were used in these studies. Animals were randomly assigned to treatment groups and were fasted for 4 h before dosing.
Drugs. Test compounds were dissolved in a vehicle consisting of normal saline (for compounds used as the HCl salt) or normal saline slightly acidified with aq. HCl (for freebase compounds). They were then administered intravenously (iv) or orally (po) at a dose of 1 or 10 mg/kg (calculated based on freebase), as indicated, and at a volume of 5 mL/kg body weight. Compounds were tested as the racemates or pure enantiomers, as indicated.
Sample Collection and Bioanalysis. Blood samples (approximately 60 μL) were collected under light isoflurane anesthesia (Surgivet®) from the retro orbital plexus at 0.08, 0.25, 0.5, 1, 2, 4, 8, and 24 h (4 animals per time point). Immediately after blood collection, plasma was harvested by centrifugation at 4,000 rpm for 10 min at 4° C. and samples were stored at −70±10° C. until bioanalysis. Following blood collection, animals were immediately sacrificed, the abdominal vena-cava was cut open, and the whole body was perfused from the heart using 10 mL of normal saline, and brain samples were collected from all animals. After isolation, brain samples were rinsed three times in ice-cold normal saline (for 5-10 seconds/rinse using ˜5-10 mL, normal saline in disposable petri dish for each rinse) and dried on blotting paper. Brain samples were homogenized using ice-cold phosphate-buffered saline (pH 7.4). Total homogenate volume was three times the tissue weight. All homogenates were stored at −70±10° C. until bioanalysis. For bioanalysis, 25 μL aliquots of plasma/brain study samples or spiked plasma/brain calibration standards were added to individual pre-labeled micro-centrifuge tubes followed by 100 μL of an internal standard solution (glipizide, 500 ng/mL in acetonitrile) except for blanks, where 100 μL of acetonitrile was added. Samples were vortexed for 5 minutes and then centrifuged for 10 minutes at 4,000 rpm at 4° C. Following centrifugation, 100 μL of each clear supernatant was transferred to a 96 well plate and analyzed with a fit-for-purpose LC-MS/MS method, with authentic samples of each analyte used for calibration and identification.
Data Analysis. Pharmacokinetic parameters were estimated using the non-compartmental analysis tool of Phoenix® WinNonlin software (Ver 8.0).

[5] = mouse brain, 1 mg/kg iv, read-out: t1/2 (iv)
[6] = mouse plasma, 1 mg/kg iv, read-out: t1/2 (iv)
[7] = mouse plasma, 1 mg/kg iv, read-out: AUC0-inf (iv) (converted)
[8] = mouse plasma, 1 mg/kg po, read-out: t1/2 (po)
[9] = mouse plasma, 1 mg/kg po, read-out: AUC0-inf (po) (converted)
[10] = mouse brain, calculated based on brain exposure (AUC0-last)
[11] = mouse plasma, based on AUC0-last
[12] = mouse brain, 1 mg/kg po, read-out: t1/2 (po)

| SMILES | Clint [1] | half-life at 1 μM [1] | half-life at 1 μM [2] | microsomal CLint at 1 μM [2] | half-life at 1 μM [3] | microsomal CLint at 1 μM [3] | half-life [4, 5] | Cmax ([4]; mouse brain, 1 mg/kg po) | half-life [4, 6] | AUC(0-inf) [4, 7] | Cmax ([4]; mouse plasma, 1 mg/kg po) | half-life [4, 8] | AUC(0-inf) [4, 9] | AUC0-inf (iv) ([4]; mouse brain, 1 mg/kg iv) | AUC0-inf (po) ([4]; mouse brain, 1 mg/kg po) | F [4, 10] | F [4, 11] | half-life [4, 12] | brain exposure after oral administration compared to enantiomer 2S ([4]; mice) |
| --- | --- | --- | --- | --- | --- | --- | --- | --- | --- | --- | --- | --- | --- | --- | --- | --- | --- | --- | --- |
| CNC1(c2ccccc2Cl)CCCCC1=O (racemic) [racemic ketamine, ketamine] | 25.5 μL/min/m | 54.4 min | 15.4 min | 90.1 µL/min/mg | 5.6 min | 294 µL/min/mg |  |  |  |  |  |  |  |  |  |  |  |  |  |
| N[C@@]1(c2ccc(F)cc2)CCCCC1=O [Compound 1R, (R)-2-amino-2-(4-fluorophenyl)cyclohexan-1-one] | <9.6 μL/min/m | > 145 min | > 145 min | < 9.6 µL/min/mg | > 145 min | < 9.6 µL/min/mg |  |  |  |  |  |  |  |  |  |  |  |  |  |
| N[C@]1(c2ccc(F)cc2)CCCCC1=O [Compound 1S, (S)-2-amino-2-(4-fluorophenyl)cyclohexan-1-one] | <9.6 μL/min/m | > 145 min | > 145 min | < 9.6 µL/min/mg | > 145 min | < 9.6 µL/min/mg | 36.6 min | 82.2 ng/g | 86.4 min | 501 ng·h/mL | 394 ng/mL | 82.2 min | 470 ng·h/mL | 14,776 ng*min/g | 6,557 ng*min/g | 44% | 94% |  |  |
| CN[C@@]1(c2ccc(F)cc2)CCCCC1=O [Compound 2R, (R)-2-(4-fluorophenyl)-2(methylamino)cyclohexan-1-one] | <9.6 μL/min/m | > 145 min | 127 min | 10.9 µL/min/mg | 78.1 min | 17.8 µL/min/mg | 23.4 min | 177 ng/g | 45 min | 96.3 ng·h/mL | 53.6 ng/mL | 29.4 min | 38.8 ng·h/mL | 17,791 ng*min/g | 5,890 ng*min/g | 33% | 40% | 36 min | substantially higher brain exposure |
| CN[C@]1(c2ccc(F)cc2)CCCCC1=O [Compound 2S, (S)-2-(4-fluorophenyl)-2-(methylamino)cyclohexan-1-one] | <9.6 μL/min/m | > 145 min | 107 min | 12.9 µL/min/mg | 60.8 min | 22.8 µL/min/mg | 21.6 min | 80.4 ng/g | 54.6 min | 119 ng·h/mL | 51.7 ng/mL | 50.4 min | 46.6 ng·h/mL | 21,532 ng*min/g | 4,264 ng*min/g | 20% | 39% | 42 min |  |
| N[C@]1(c2cccc(F)c2)CCCCC1=O [Compound 3S] | <9.6 μL/min/m | > 145 min | 123 min | 11.3 µL/min/mg | 94.6 min | 14.6 µL/min/mg | 26.4 min | 112 ng/g | 101 min | 608 ng·h/mL | 640 ng/mL | 29.4 min | 542 ng·h/mL | 18,797 ng*min/g | 7,418 ng*min/g | 39% | 89% | 40.8 min |  |
